Results reported in ChEMBL document CHEMBL1155474, “8-THP-DHI analogs as potent Type I dual TIE-2/VEGF-R2 receptor tyrosine kinase inhibitors” (Bioorg Med Chem Lett, 2010).
Values belong to the molecule of their own block, whether it stands above or below them. Calls of active or inactive are those of the source. The calls are words filed in the database; no cut-off is given here.

What was measured:
[1] = biological target: Dual specificity mitogen-activated protein kinase kinase 1 (Homo sapiens) (UniProt Q02750); experiment: Inhibition of MEK1 at 3 uM
[2] = Clearance in rat at 1 mg/kg, iv; type: ADME, organism-based; design: dose 1 mg/kg, route intravenous; conditions: in vivo
[3] = Volume of distribution in rat at 1 mg/kg, iv; type: ADME, organism-based; design: dose 1 mg/kg, route intravenous; conditions: in vivo
[4] = biological target: Tyrosine-protein kinase Fyn (Homo sapiens) (UniProt P06241); experiment: Inhibition of Fyn at 3 uM
SVR [5] = experiment: Antitumor activity against mouse SVR cells xenografted in nude mouse assessed as tumor inhibition at 1 mg/kg, po bid administered after 4 days tumor implantation for 10 days; type: functional
[6] = biological target: Fibroblast growth factor receptor 3 (Homo sapiens) (UniProt P22607); experiment: Inhibition of FGFR3 at 3 uM
[7] = biological target: T1, Serine/threonine-protein kinase Chk1 (Homo sapiens) (UniProt O14757); experiment: Inhibition of CHK1 at 3 uM
T1 sequence (whole entry): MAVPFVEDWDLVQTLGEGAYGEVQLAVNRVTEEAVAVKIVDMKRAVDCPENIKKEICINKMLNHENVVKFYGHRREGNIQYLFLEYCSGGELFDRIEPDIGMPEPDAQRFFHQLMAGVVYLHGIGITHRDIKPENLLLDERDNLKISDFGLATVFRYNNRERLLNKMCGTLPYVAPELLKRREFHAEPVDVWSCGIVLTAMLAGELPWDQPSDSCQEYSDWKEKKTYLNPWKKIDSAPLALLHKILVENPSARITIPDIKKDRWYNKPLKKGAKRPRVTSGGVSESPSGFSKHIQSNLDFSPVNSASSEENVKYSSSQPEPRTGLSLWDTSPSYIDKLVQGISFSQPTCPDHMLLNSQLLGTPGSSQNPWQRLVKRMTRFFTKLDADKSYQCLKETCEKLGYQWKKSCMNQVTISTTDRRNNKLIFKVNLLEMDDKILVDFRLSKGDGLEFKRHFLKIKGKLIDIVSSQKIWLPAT

[8] = biological target: T2, Vascular endothelial growth factor receptor 2 (Homo sapiens, UniProt P35968); experiment: Inhibition of human recombinant VEGFR2 by time resolved fluorescence measurements
[9] = Metabolic stability in rat liver S9 fraction; type: ADME, subcellular
Insulin receptor = Insulin receptor (Homo sapiens, UniProt P06213); experiment: Inhibition of insulin receptor
[10] = biological target: Vascular endothelial growth factor receptor 1 (Homo sapiens, UniProt P17948); experiment: Inhibition of VEGFR1 at 3 uM
Angiopoietin-1 receptor = Angiopoietin-1 receptor (Homo sapiens, UniProt Q02763); experiment: Inhibition of human recombinant TIE-2 by time resolved fluorescence measurements
Aorta = experiment: Ex vivo antiangiogenic activity in rat aortic ring assessed as inhibition of VEGF-stimulated microvessel growth; type: functional, tissue-based
HUVEC [11] = experiment: Inhibition of capillary tube formation in HUVEC; type: functional, cell-based; conditions: Homo sapiens
[12] = Oral bioavailability in rat at 10 mg/kg; type: ADME, organism-based; conditions: in vivo
[13] = Inhibition of PKC at 3 uM
[14] = biological target: Tyrosine-protein kinase Yes (Homo sapiens) (UniProt P07947); experiment: Inhibition of YES at 3 uM
[15] = AUC (0 to infinity) in rat at 10 mg/kg, po; type: ADME, organism-based; design: time infinity, dose 10 mg/kg, route oral; conditions: plasma
[16] = Inhibition of JNK at 3 uM
[17] = Plasma concentration in mouse SVR cells xenografted in nude mouse at 3 mg/kg, po bid administered after 4 days tumor implantation for 10 days measured after 2 hrs post dose; type: ADME, organism-based; design: dose 3 mg/kg, route oral
[18] = biological target: Platelet-derived growth factor receptor beta (Homo sapiens) (UniProt P09619); experiment: Inhibition of PDGFRbeta at 3 uM
[19] = Inhibition of cytochrome P450
[20] = Cmax in rat at 10 mg/kg, po; type: ADME, organism-based; design: dose 10 mg/kg, route oral; conditions: in vivo
[21] = Plasma concentration in mouse SVR cells xenografted in nude mouse at 1 mg/kg, po bid administered after 4 days tumor implantation for 10 days measured after 2 hrs post dose; type: ADME, organism-based; design: dose 1 mg/kg, route oral
[22] = Terminal half life in rat at 10 mg/kg, po; type: ADME, organism-based; design: dose 10 mg/kg, route oral; conditions: in vivo, read-out: beta t1/2 (converted)
[23] = biological target: Tyrosine-protein kinase Blk (Homo sapiens) (UniProt P51451); experiment: Inhibition of Blk at 3 uM
[24] = biological target: Glycogen synthase kinase-3 beta (Homo sapiens) (UniProt P49841); experiment: Inhibition of GSK3-beta at 3 uM
HUVEC [25] = experiment: Cytotoxicity against HUVEC; type: cell-based; conditions: human
[26] = biological target: T2, Vascular endothelial growth factor receptor 2; experiment: Inhibition of VEGF-stimulated VEGFR2 autophosphorylation in HUVEC
SVR [27] = experiment: Antitumor activity against mouse SVR cells xenografted in nude mouse assessed as tumor regressions at 3 mg/kg, po bid administered after 4 days tumor implantation for 10 days; type: functional
[28] = Inhibition of CDK at 3 uM
[29] = Inhibition of MAPK at 3 uM
SVR [30] = experiment: Antitumor activity against mouse SVR cells xenografted in nude mouse assessed as tumor inhibition at 3 mg/kg, po bid administered after 4 days tumor implantation for 10 days; type: functional
[31] = biological target: Tyrosine-protein kinase Lck (Homo sapiens) (UniProt P06239); experiment: Inhibition of LCK at 3 uM
[32] = biological target: Epidermal growth factor receptor (Homo sapiens, UniProt P00533); experiment: Inhibition of EGFR
[33] = biological target: Tyrosine-protein kinase Lyn (Homo sapiens) (UniProt P07948); experiment: Inhibition of Lyn at 3 uM
[34] = Terminal half life in rat at 1 mg/kg, iv; type: ADME, organism-based; design: dose 1 mg/kg, route intravenous; conditions: in vivo, read-out: beta t1/2 (converted)
[35] = biological target: Vascular endothelial growth factor receptor 3 (Homo sapiens, UniProt P35916); experiment: Inhibition of VEGFR3 at 3 uM
[36] = AUC (0 to infinity) in rat at 1 mg/kg, iv; type: ADME, organism-based; design: time infinity, dose 1 mg/kg, route intravenous; conditions: plasma
SVR [37] = experiment: Antitumor activity against mouse SVR cells xenografted in nude mouse assessed as complete tumor regressions at 1 mg/kg, po bid administered after 4 days tumor implantation for 10 days; type: functional
SVR [38] = experiment: Antitumor activity against mouse SVR cells xenografted in nude mouse assessed as partial tumor regressions at 1 mg/kg, po bid administered after 4 days tumor implantation for 10 days; type: functional

T2 sequence (P35968 whole entry): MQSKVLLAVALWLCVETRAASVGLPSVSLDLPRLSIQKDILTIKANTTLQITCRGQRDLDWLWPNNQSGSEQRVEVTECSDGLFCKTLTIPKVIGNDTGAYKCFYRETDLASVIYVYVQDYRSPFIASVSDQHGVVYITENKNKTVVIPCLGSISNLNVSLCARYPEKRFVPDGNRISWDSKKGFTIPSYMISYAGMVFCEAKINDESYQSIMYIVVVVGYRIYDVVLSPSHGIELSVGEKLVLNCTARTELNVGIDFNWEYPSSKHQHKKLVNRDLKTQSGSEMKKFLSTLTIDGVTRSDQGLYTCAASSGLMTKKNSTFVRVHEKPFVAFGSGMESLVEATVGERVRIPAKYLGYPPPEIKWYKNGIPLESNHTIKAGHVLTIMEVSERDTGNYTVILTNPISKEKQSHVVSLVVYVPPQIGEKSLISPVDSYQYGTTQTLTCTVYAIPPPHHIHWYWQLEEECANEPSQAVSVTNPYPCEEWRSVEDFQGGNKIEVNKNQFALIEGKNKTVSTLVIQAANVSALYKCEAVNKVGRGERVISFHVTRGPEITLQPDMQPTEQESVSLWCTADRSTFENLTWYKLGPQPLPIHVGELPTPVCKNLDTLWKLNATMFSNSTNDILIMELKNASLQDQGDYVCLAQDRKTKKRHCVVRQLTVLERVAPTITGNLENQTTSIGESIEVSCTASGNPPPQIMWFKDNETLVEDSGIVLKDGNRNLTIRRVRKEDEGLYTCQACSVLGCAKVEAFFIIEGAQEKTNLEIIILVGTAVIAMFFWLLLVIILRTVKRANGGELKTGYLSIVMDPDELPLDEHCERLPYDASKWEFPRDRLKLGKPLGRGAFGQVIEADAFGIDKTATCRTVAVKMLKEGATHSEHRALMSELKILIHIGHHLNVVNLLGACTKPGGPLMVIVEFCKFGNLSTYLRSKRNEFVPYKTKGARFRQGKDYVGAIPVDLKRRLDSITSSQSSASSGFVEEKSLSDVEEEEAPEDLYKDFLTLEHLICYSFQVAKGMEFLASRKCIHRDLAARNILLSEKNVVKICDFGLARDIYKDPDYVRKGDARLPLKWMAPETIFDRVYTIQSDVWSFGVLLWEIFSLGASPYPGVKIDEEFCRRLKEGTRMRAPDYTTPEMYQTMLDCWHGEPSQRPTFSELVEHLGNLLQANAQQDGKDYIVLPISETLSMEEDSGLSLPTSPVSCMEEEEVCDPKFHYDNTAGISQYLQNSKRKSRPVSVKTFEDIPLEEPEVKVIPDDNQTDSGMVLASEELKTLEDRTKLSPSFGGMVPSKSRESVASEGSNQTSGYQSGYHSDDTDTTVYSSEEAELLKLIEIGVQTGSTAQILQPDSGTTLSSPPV
Chain of Platelet-derived growth factor receptor beta (Homo sapiens) (P09619 whole entry): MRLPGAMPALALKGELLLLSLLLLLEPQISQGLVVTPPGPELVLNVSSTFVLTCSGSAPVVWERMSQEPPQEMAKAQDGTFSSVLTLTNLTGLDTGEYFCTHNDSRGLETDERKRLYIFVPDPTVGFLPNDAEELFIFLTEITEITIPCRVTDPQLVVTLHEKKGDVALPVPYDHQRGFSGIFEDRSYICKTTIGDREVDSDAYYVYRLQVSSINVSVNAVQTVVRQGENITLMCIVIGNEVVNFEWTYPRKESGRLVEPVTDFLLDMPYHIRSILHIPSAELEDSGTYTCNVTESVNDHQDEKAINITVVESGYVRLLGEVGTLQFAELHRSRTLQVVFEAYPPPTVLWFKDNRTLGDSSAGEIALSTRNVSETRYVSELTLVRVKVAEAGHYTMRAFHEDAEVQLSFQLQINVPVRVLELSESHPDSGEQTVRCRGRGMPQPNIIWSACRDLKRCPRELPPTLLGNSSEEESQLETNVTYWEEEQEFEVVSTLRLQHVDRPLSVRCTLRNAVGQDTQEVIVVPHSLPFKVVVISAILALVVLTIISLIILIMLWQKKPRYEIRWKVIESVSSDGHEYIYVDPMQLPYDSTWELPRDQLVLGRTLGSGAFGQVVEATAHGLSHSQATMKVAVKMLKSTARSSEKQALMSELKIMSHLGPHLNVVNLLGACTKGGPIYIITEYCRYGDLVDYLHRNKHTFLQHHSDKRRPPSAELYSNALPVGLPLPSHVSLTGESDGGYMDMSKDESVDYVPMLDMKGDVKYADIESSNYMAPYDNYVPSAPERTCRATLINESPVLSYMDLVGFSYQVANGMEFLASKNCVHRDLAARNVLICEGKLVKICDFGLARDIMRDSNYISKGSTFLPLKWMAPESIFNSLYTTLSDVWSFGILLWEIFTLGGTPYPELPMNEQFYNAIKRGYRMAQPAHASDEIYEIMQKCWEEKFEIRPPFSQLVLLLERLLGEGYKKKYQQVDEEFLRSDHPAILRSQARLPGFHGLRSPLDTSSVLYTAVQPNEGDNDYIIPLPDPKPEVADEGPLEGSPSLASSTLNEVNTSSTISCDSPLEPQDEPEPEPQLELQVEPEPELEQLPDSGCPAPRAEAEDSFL
Chain of Angiopoietin-1 receptor (Q02763 whole entry): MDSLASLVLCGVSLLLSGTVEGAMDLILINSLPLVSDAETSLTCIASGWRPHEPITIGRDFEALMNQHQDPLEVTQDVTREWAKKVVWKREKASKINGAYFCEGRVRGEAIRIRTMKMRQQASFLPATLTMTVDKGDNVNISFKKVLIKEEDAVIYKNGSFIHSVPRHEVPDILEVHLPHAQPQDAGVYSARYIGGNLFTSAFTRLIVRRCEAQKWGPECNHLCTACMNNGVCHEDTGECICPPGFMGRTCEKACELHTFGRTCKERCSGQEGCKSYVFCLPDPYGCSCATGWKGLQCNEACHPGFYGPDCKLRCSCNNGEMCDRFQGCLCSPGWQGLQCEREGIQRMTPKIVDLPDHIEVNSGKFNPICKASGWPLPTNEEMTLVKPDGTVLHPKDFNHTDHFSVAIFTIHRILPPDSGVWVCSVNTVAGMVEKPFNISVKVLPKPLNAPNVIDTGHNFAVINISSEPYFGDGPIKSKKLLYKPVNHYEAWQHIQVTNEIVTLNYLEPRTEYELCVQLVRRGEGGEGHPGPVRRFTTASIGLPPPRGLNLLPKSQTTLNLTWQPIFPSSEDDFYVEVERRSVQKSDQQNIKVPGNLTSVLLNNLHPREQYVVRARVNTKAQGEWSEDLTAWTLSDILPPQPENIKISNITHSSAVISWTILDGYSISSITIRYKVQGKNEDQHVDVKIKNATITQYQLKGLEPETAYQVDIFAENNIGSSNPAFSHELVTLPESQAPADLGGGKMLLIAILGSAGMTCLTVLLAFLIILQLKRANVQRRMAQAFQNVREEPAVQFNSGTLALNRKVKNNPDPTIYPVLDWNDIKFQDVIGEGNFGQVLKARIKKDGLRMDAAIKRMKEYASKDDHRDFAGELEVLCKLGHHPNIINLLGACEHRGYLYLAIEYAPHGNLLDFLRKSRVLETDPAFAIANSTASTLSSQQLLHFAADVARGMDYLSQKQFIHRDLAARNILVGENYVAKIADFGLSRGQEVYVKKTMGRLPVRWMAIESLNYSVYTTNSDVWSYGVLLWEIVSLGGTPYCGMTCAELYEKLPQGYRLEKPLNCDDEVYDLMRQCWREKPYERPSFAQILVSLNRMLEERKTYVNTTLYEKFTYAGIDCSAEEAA
Chain of Glycogen synthase kinase-3 beta (Homo sapiens) (P49841 whole entry, looked up): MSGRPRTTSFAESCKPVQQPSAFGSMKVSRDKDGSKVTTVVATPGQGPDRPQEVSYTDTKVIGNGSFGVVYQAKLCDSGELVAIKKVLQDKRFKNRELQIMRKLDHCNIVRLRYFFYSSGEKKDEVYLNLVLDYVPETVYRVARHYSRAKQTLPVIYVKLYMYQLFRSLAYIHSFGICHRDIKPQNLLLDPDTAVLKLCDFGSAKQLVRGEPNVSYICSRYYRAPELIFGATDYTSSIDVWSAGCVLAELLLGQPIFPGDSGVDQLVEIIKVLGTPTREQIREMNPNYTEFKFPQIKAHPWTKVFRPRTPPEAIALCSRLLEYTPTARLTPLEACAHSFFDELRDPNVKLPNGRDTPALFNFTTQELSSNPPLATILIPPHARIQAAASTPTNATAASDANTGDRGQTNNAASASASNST
Chain of Tyrosine-protein kinase Lck (Homo sapiens) (P06239 2-509 limits assumed): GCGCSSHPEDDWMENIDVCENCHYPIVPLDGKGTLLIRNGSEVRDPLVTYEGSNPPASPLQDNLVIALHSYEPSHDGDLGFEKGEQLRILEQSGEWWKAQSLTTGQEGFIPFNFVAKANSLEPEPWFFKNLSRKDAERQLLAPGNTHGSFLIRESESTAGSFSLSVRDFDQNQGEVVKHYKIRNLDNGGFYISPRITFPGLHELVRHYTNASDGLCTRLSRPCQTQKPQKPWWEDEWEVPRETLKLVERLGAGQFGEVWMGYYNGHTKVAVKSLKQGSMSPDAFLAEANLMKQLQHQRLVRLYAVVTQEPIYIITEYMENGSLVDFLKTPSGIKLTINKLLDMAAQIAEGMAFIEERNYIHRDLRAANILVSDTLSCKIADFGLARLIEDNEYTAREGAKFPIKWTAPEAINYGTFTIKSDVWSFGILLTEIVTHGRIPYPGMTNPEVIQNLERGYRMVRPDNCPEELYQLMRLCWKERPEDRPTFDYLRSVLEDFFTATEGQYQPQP
Chain of Tyrosine-protein kinase Fyn (Homo sapiens) (P06241 2-537 limits assumed): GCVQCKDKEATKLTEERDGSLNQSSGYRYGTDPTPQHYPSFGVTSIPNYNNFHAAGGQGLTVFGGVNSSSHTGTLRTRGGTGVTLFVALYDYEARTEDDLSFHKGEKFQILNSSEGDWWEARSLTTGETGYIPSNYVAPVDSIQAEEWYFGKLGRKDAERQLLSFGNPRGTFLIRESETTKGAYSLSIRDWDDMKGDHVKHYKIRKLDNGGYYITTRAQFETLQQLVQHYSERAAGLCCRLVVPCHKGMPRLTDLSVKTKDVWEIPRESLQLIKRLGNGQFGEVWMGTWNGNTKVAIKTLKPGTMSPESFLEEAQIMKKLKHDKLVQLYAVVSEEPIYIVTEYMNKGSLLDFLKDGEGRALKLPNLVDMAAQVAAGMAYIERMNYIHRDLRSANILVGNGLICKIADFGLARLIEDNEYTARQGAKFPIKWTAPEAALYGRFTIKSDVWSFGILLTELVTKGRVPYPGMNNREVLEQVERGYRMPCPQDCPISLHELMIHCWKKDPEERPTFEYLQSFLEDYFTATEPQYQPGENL

inhibition [1]: inactive | clearance [2]: 15 mL/min/kg | Vd [3]: 2 L/kg | inhibition [4]: > 90% | inhibition [6]: 100% | inhibition [7]: inactive | IC50 [8]: 0.024 µM | Stability [9]: Stable | IC50 (Insulin receptor): > 1 µM | IC50 [10]: 0.028 µM | IC50 (Angiopoietin-1 receptor): 0.01 µM | bioavailability [12]: 16% | inhibition [13]: inactive | inhibition [14]: > 90% | AUC(0-inf) [15]: 1890 ng·h/mL | inhibition [16]: inactive | concentration at 2 h [17]: 900 nM | inhibition [18]: > 90% | INH [19]: > 10 µM | Cmax [20]: 255 ng/mL | concentration at 2 h [21]: 158 nM | half-life [22]: 2.8 h | inhibition [23]: > 90% | inhibition [24]: inactive | IC50 [26]: 0.01 µM | inhibition [28]: inactive | inhibition [29]: inactive | inhibition [31]: > 90% | IC50 [32]: > 1 µM | inhibition [33]: > 90% | half-life [34]: 1.5 h | IC50 [35]: 0.005 µM | AUC(0-inf) [36]: 1160 ng·h/mL
SMILES: CCCCn1c2ccc(C3CCCCO3)cc2c2c3c(c4c(c21)CCc1nn(C)cc1-4)C(=O)NC3 (racemic)
inhibition in vivo at 1 mg/kg (SVR [5]): 52% | EC50 (Aorta): 0.0012 µM | EC50 (HUVEC [11]): 0.0006 µM | Activity (HUVEC [25]): Non-toxic | Activity (SVR [27]): 10% | inhibition in vivo at 3 mg/kg (SVR [30]): 63%

inhibition [1]: inactive | clearance [2]: 20 mL/min/kg | Vd [3]: 3.2 L/kg | inhibition [4]: > 90% | inhibition [6]: 100% | inhibition [7]: inactive | IC50 [8]: 0.011 µM | Stability [9]: Stable | IC50 (Insulin receptor): > 1 µM | IC50 [10]: 0.016 µM | IC50 (Angiopoietin-1 receptor): 0.003 µM | bioavailability [12]: 15% | inhibition [13]: inactive | inhibition [14]: > 90% | AUC(0-inf) [15]: 1260 ng·h/mL | inhibition [16]: inactive | concentration at 2 h [17]: 950 nM | inhibition [18]: > 90% | INH [19]: > 10 µM | Cmax [20]: 154 ng/mL | concentration at 2 h [21]: 321 nM | half-life [22]: 3.9 h | inhibition [23]: > 90% | inhibition [24]: inactive | IC50 [26]: 0.01 µM | inhibition [28]: inactive | inhibition [29]: inactive | inhibition [31]: > 90% | IC50 [32]: > 1 µM | inhibition [33]: > 90% | half-life [34]: 1.9 h | IC50 [35]: 0.009 µM | AUC(0-inf) [36]: 862 ng·h/mL
SMILES: CC(C)Cn1c2ccc(C3CCCCO3)cc2c2c3c(c4c(c21)CCc1nn(C)cc1-4)C(=O)NC3 (racemic)
Activity (SVR [37]): 10% | inhibition in vivo at 1 mg/kg (SVR [5]): 59% | EC50 (Aorta): 0.0009 µM | EC50 (HUVEC [11]): 0.002 µM | Activity (HUVEC [25]): Non-toxic | Activity (SVR [27]): 10% | Activity (SVR [38]): 10% | inhibition in vivo at 3 mg/kg (SVR [30]): 61%
